{"source": "patent US20250352658A1", "about": "“COMBINATION THERAPY USING ANTIBODY-DRUG CONJUGATES” (ADC THERAPEUTICS SA, priority 2021, published 2025)", "key": {"WSU-DLCL2 xenograft": {"system": "WSU-DLCL2 xenograft", "experiment": "In vivo efficacy, WSU-DLCL2 xenograft model", "set-up": "species or system mice", "protocol": "Female severe combined immunodeficient mice (Fox Chase SCID®, CB17/Icr-Prkdc^scid/IcrIcoCrl, Charles River) were nine weeks old with a body weight (BW) range of 17.3 to 24.1 g on Day 1 of the study.\nOn the day of implant, 1×10^7 WSU-DLCL2 cells (0.1 mL suspension) were subcutaneously implanted into the right flank of each test animal and tumors were monitored as their volumes approached the target range.\nTen days after tumor implantation, designated as Day 1 of the study, the animals were sorted into groups (n=10) with individual tumor volumes of 88 to 126 mm^3 and group mean tumor volumes of 109 to 111 mm^3.\nAll vehicle and ADC doses were administered i.v. via tail vein injection once on Day 1 (qd×1). The dosing volume was 0.2 mL per 20 grams of body weight (10 mL/kg) and was scaled to the body weight of each individual animal.\n(§1) Tumors were measured using calipers twice per week, and each animal was euthanized when its tumor reached the endpoint volume of 1000 mm^3 or at the end of the study, whichever came first. The study ended on Day 62.\nTumors were measured in two dimensions using calipers, and volume was calculated using the formula\nTumor Volume (mm^3)=w^2×l/2, where w=width and l=length, in mm, of the tumor.\nTumor weight may be estimated with the assumption that 1 mg is equivalent to 1 mm^3 of tumor volume."}, "Ramos xenograft": {"system": "Ramos xenograft", "experiment": "In vivo efficacy, Ramos xenograft model", "set-up": "species or system mice", "protocol": "A further in vivo study was conducted, similar to Example 2 but using a Ramos xenograft model.\nFemale severe combined immunodeficient mice (Fox Chase SCID®, CB17/Icr-Prkdc^scid/IcrIcoCrl, Charles River) were eight weeks old with a body weight (BW) range of 15.6 to 22.9 g on Day 1 of the study.\nOn the day of implant, 1×10^7 Ramos cells (0.1 mL suspension) were subcutaneously implanted into the right flank of each test animal and tumors were monitored as their volumes approached the target range. All vehicle and ADC doses were administered i.v. via tail vein injection once on Day 1 (qd×1). The dosing volume was 0.2 mL per 20 grams of body weight (10 mL/kg) and was scaled to the body weight of each individual animal.\nFourteen days after tumor implantation, designated as Day 1 of the study, the animals were sorted into groups (n=10) with individual tumor volumes of 108 to 144 mm^3 and group mean tumor volumes of 130 to 134 mm^3.\nas §1"}, "[1]": {"conditions": "CD19xADC 0.25 mg/kg i.v. once on Day 1, n=10"}, "[2]": {"conditions": "CD19xADC 0.5 mg/kg i.v. once on Day 1, n=10"}, "[3]": {"conditions": "CD19xADC 0.3 mg/kg i.v. once on Day 1, n=10"}, "[4]": {"conditions": "CD19xADC 0.6 mg/kg i.v. once on Day 1, n=10"}}, "data": [{"substance": "CD19xADC: anti-CD19 ADC; Loncastuximab tesirine is the CD19xADC used", "values": [{"measurement": "CR (complete response)", "setting": "WSU-DLCL2 xenograft; [1]", "value": 0}, {"measurement": "PR (partial response)", "setting": "WSU-DLCL2 xenograft; [1]", "value": 3}, {"measurement": "TFS (tumour free survivor)", "setting": "WSU-DLCL2 xenograft; [1]", "value": 0}, {"measurement": "CR (complete response)", "setting": "WSU-DLCL2 xenograft; [2]", "value": 5}, {"measurement": "PR (partial response)", "setting": "WSU-DLCL2 xenograft; [2]", "value": 2}, {"measurement": "TFS (tumour free survivor)", "setting": "WSU-DLCL2 xenograft; [2]", "value": 3}, {"measurement": "CR (complete response)", "setting": "Ramos xenograft; [3]", "value": 0}, {"measurement": "PR (partial response)", "setting": "Ramos xenograft; [3]", "value": 0}, {"measurement": "TFS (tumour free survivor)", "setting": "Ramos xenograft; [3]", "value": 0}, {"measurement": "CR (complete response)", "setting": "Ramos xenograft; [4]", "value": 7}, {"measurement": "PR (partial response)", "setting": "Ramos xenograft; [4]", "value": 0}, {"measurement": "TFS (tumour free survivor)", "setting": "Ramos xenograft; [4]", "value": 7}]}]}
